Measured values from patent US20250304644A1, “PEPTIDES TRIPLE AGONISTS OF GIP, GLP-1 AND GLP-2” (BAINAN BIOTECH APS, priority 2021, published 2025).
Read-outs that look alike come from different tables or passages of the source. *1 amine or outer side, *2 acyl side, *3 side chain or, on linkers, in order; H or OH if unused. Where no end group is shown, it is not given here. Side-chain parts run from the residue outwards. [ ]: non-standard residue; d: D form. The star is where a group is joined. C18 diacid = O=C(O)CCCCCCCCCCCCCCCCC(=O)*; γGlu = O=C(O)[C@H](CCC(=O)[*:2])N[*:1]; AEEA = NCCOCCOCC(=O)O; Aib = CC(C)(N)C(=O)O

What was measured:
human GIPR = biological target: T1, human GIPR (Homo sapiens, UniProt P48546); test: cAMP assay (HitHunter) in transiently transfected COS-7 cells expressing human GIPR; type: cell-based
T1 construct: host or cells: COS-7
T1 sequence (P48546 22-466): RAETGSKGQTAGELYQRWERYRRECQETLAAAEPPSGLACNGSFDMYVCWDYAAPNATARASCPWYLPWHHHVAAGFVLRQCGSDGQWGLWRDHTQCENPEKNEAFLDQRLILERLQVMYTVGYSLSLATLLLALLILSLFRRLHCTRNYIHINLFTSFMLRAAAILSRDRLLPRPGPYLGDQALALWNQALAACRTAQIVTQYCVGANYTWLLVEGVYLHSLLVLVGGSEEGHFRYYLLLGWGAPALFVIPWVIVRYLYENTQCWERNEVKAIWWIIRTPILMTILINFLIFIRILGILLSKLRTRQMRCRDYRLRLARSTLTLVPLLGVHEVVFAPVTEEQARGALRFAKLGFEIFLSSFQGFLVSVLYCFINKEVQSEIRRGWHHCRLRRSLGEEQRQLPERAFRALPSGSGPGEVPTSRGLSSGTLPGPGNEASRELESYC

human GLP-2R = biological target: T2, human GLP-2R (Homo sapiens, UniProt O95838); test: cAMP assay (HitHunter) in transiently transfected COS-7 cells expressing human GLP-2R; type: cell-based
T2 construct: host or cells: COS-7
T2 sequence (O95838 1-553): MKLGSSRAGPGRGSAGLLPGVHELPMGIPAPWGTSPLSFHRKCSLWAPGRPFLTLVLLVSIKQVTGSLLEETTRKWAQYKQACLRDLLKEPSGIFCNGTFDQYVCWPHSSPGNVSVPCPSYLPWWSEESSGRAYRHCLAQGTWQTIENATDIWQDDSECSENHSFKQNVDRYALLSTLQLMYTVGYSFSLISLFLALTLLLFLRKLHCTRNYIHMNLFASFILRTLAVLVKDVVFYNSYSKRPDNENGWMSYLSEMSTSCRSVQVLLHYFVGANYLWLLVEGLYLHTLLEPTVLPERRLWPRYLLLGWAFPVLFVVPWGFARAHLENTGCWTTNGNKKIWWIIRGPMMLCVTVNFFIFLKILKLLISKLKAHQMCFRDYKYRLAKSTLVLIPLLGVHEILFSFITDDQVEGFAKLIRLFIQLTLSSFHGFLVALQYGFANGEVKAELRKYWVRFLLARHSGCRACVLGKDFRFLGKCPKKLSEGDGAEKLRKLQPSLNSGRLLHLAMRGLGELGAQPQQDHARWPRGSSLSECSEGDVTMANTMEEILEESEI

human GLP-1R = biological target: T3, human GLP-1R (Homo sapiens, UniProt P43220); test: cAMP assay (HitHunter) in transiently transfected COS-7 cells expressing human GLP-1R; type: cell-based; conditions: for EC50: cAMP, COS-7 cells, human GLP-1R
T3 construct: host or cells: COS-7
T3 sequence (P43220 24-463): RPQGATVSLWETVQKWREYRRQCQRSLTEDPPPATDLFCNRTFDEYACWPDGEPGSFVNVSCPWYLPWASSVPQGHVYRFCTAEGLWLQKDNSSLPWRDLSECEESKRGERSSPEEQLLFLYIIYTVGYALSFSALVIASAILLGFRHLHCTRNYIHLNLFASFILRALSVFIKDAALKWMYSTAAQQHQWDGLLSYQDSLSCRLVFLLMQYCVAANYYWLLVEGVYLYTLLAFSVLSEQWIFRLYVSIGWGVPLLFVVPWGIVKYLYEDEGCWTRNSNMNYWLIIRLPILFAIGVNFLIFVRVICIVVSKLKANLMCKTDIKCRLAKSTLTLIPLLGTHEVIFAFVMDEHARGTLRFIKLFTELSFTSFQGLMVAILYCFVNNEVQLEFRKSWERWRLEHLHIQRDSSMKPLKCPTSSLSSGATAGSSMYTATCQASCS

[1] = biological target: human glucagon receptor (GCGR) (Homo sapiens, UniProt P47871); test: Gs activation measured as cAMP accumulation on human glucagon receptor (FIG. 1 radar plot); type: cell-based; conditions: read-out: −p Log EC50 on human glucagon receptor (GCGR) (converted)
Chain of human glucagon receptor (GCGR) (P47871 26-477): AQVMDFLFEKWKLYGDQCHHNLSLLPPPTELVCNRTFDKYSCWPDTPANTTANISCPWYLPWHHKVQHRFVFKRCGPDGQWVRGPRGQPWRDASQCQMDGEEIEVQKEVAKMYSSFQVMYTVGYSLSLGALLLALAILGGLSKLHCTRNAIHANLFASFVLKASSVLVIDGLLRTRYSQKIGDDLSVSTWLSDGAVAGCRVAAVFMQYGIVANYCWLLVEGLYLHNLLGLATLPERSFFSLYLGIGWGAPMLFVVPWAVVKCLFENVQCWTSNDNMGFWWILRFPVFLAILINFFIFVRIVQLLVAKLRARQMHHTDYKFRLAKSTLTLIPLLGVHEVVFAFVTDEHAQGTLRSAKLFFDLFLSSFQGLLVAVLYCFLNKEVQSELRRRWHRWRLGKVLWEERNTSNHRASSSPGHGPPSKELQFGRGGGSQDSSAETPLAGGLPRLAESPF
From the text: Here, the compounds 20, 21, 22, 28, 30, 31,32, 33, 34, 35 are shown in terms of their potencies in Gs activation, measured as CAMP accumulation, depicted in a radar plot. The numbers refer to −p Log EC50 values. […] The outer rings correspond to higher potencies, the inner rings correspond to lower potencies.

human SNAP-tagged GIPR = biological target: T4, human SNAP-tagged GIPR (Homo sapiens, UniProt P48546); test: Receptor internalization assay, HEK293A cells expressing human SNAP-tagged GIPR; type: cell-based
T4 construct: host or cells: HEK293A
T4 sequence (P48546 22-466): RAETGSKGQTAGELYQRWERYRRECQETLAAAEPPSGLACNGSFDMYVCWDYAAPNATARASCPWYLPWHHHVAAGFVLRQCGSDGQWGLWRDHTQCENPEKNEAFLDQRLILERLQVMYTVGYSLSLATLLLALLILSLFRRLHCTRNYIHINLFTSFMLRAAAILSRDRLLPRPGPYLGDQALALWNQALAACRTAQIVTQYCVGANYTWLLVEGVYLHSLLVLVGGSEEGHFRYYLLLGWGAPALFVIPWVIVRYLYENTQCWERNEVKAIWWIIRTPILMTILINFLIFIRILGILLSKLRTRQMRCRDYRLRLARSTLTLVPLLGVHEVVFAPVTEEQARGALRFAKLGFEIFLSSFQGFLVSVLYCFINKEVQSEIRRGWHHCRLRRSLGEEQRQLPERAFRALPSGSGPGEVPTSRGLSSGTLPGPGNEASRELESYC

human SNAP-tagged GLP-1R = biological target: T5, human SNAP-tagged GLP-1R (Homo sapiens, UniProt P43220); test: Receptor internalization assay, HEK293A cells expressing human SNAP-tagged GLP-1R; type: cell-based
T5 construct: expressed in transfected cells; host or cells: HEK293A
T5 sequence (P43220 24-463): as the sequence (P43220 24-463) above

human SNP-tagged GLP-2R = biological target: T6, human SNP-tagged GLP-2R (Homo sapiens, UniProt O95838); test: Receptor internalization assay, HEK293A cells expressing human SNAP-tagged GLP-2R; type: cell-based
T6 construct: expressed in transfected cells; host or cells: HEK293A
T6 sequence (O95838 1-553): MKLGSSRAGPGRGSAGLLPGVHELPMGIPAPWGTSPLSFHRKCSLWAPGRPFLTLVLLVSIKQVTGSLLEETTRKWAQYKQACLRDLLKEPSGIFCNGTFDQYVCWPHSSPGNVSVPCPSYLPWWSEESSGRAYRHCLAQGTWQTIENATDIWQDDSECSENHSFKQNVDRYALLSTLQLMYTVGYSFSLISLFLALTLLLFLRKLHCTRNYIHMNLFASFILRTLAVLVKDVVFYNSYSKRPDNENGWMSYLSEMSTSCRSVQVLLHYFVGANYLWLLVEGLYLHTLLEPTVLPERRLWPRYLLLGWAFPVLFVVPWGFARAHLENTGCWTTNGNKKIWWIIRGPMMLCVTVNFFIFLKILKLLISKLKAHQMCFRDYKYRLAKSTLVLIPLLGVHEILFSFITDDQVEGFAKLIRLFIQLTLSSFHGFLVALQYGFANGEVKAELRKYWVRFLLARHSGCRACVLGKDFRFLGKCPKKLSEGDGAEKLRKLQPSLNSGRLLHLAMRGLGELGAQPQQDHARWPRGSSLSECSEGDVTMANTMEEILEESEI

[2] = biological target: T7, human GIPR (glucose-dependent insulinotropic polypeptide receptor) (human, UniProt P48546 22-466); test: cell-based or functional assay
T7 sequence (looked up): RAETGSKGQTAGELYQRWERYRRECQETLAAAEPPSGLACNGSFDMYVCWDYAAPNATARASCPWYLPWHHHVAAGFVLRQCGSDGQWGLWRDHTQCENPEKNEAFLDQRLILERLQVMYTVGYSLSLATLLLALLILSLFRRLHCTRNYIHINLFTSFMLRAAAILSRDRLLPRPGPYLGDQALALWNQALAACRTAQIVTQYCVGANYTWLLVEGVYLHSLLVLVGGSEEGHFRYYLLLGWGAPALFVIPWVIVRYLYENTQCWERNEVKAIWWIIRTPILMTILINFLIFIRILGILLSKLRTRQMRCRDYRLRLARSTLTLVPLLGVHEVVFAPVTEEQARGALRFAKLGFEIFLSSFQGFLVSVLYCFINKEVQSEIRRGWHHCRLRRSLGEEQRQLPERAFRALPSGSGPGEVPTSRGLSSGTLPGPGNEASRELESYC

[3] = biological target: T8, human GLP-2R (glucagon-like peptide-2 receptor) (human, UniProt O95838 1-553); test: cell-based or functional assay
T8 sequence (looked up): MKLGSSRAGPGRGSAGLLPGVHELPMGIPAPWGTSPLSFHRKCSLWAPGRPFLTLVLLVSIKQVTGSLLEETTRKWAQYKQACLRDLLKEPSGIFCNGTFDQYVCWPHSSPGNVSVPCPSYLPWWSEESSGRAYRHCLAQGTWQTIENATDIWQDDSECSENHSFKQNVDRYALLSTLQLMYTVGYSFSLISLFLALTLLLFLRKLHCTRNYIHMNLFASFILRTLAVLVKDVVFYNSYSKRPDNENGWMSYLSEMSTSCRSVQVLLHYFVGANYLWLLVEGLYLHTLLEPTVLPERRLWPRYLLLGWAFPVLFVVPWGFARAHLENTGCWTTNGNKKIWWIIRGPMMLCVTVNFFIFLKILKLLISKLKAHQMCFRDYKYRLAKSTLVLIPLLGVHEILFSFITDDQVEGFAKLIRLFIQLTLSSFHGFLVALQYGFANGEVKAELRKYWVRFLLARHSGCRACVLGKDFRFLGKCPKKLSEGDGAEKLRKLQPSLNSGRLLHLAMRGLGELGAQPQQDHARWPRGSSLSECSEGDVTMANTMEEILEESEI

[4] = biological target: human GLP-1R (glucagon-like peptide-1 receptor) (human, UniProt P43220 24-463); test: cell-based or functional assay
[5] = biological target: T9, Human N-terminally SNAP-tagged GIPR (human, UniProt P48546 22-466, SNAP tag labeled with Tag-Lite SNAP-Lumi4-Tb); test: cell-based or functional assay
T9 sequence (looked up): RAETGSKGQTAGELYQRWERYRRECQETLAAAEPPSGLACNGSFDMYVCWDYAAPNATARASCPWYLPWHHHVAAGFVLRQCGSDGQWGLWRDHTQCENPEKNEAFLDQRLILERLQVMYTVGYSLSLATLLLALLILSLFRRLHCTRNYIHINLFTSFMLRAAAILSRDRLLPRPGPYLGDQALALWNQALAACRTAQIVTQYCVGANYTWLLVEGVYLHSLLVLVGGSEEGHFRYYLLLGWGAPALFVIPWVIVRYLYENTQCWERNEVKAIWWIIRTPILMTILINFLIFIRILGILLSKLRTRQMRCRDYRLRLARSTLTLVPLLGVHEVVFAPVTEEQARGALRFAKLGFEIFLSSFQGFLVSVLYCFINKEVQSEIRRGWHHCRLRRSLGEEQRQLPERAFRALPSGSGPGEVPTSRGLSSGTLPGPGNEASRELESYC

[6] = AUC of sigmoid curves up to 1 μM, 60 minutes at 37° C.

“HADGTFTSDYST[Aib]LDK([AEEA-AEEA-γGlu-C18 diacid])LAARDFINWLIQTKGKKNDWKHNITQ-OH [Compound 22]” showed an Emax (human GIPR; COS-7, normalized to highest concentration of the endogenous ligand, read-out: Efficacy GIPR (Emax)) of 93%, an EC50 (human GIPR; cAMP, COS-7 cells, human GIPR) of 1.12 nM and an Emax (human GLP-2R; COS-7, normalized to highest concentration of the endogenous ligand, read-out: Efficacy GLP-2R (Emax)) of 93%. The EC50 (human GLP-2R; cAMP, COS-7 cells, human GLP-2R, read-out: EC50 (nM) GLP-2R) was 0.6 nM, the Emax (human GLP-1R; COS-7, normalized to highest concentration of the endogenous ligand, read-out: Efficacy GLP-1R (Emax)) was 116% and the EC50 (human GLP-1R; read-out: EC50 (nM) GLP-1R) was 0.04 nM. For the same molecule, the EC50 (human GLP-1R; read-out: logEC50 GLP-1R (converted)) was 0.0316 nM, the EC50 [1] was greater than 100 nM and the “Absolute hGIPR internalization (AUC)” value (human SNAP-tagged GIPR; [6]) was 7.0. The “GIPR internalization (in words)” value (human SNAP-tagged GIPR; compared to native GIP) was “reduced internalization compared to native GIP”, the “Relative hGIPR internalization (%)” value (human SNAP-tagged GIPR; relative to hGIP 1-42 = 100) was 19% and the “Absolute hGLP-1R internalization (AUC)” value (human SNAP-tagged GLP-1R; [6]) was 78.81. For the same molecule, the “GLP-1R internalization (in words)” value (human SNAP-tagged GLP-1R; compared to native GLP-1) was “comparable to native GLP-1 and GLP-2”, the “Relative hGLP-1R internalization (%)” value (human SNAP-tagged GLP-1R; relative to hGLP-1 = 100) was 93.70% and the “Absolute hGLP-2R internalization (AUC)” value (human SNP-tagged GLP-2R; [6]) was 38.0. The “GLP-2R internalization (in words)” value (human SNP-tagged GLP-2R; compared to native GLP-2) was “comparable to native GLP-1 and GLP-2” and the “Relative hGLP-2R internalization (%)” value (human SNP-tagged GLP-2R; relative to native ligand = 100) was 78.2%.

With HADGTFTSDYST[Aib]LDKLAARDFINWLIQTKGKKNDWKHNITQK([AEEA-AEEA-γGlu-C18 diacid])-OH [Compound 27] the “EC50 (nM) GIPR” value [2] was 0.562 nM, the “Efficacy GIPR” value [2] was 124 and the “pEC50 GIPR” value [2] was 9.3. For the same molecule, the “EC50 (nM) GLP-2R” value [3] was 3.2 nM, the “Efficacy GLP-2R” value [3] was 85 and the “logEC50 GLP-2R” value [3] was 8.5. The “EC50 (nM) GLP-1R” value [4] was 0.05 nM, the “Efficacy GLP-1R” value [4] was 115 and the “logEC50 GLP-1R” value [4] was 10.3. For the same molecule, the “Absolute hGIPR internalization (AUC)” value [5] was 9 AUC and the “Relative hGIPR internalization (%)” value [5] was 24%.
